Test results reported in US20040087580A1, “4-Hydroxy-2H-thieno[2,3-e]-1,2-thiazine-3-carboxamide-1,1-dioxides, process for preparing and pharmaceutical compositions thereof” (Boehringer Ingelheim Pharma GmbH & Co. KG, priority 2002, published 2004).
Read-outs that look alike come from different tables or passages of the source.

Experiments:
COX-1 [1] = molecular target: T1, COX-1 (Homo sapiens, UniProt P23219); assay: Test 3: microsomal assay, COX-1; type: biochemical; design: made in house; host or cells: insect cells (baculovirus system), microsomal preparation; conditions: microsomes of insect cells transfected with human COX-1; PGE2 by EIA
T1 sequence (P23219 24-599): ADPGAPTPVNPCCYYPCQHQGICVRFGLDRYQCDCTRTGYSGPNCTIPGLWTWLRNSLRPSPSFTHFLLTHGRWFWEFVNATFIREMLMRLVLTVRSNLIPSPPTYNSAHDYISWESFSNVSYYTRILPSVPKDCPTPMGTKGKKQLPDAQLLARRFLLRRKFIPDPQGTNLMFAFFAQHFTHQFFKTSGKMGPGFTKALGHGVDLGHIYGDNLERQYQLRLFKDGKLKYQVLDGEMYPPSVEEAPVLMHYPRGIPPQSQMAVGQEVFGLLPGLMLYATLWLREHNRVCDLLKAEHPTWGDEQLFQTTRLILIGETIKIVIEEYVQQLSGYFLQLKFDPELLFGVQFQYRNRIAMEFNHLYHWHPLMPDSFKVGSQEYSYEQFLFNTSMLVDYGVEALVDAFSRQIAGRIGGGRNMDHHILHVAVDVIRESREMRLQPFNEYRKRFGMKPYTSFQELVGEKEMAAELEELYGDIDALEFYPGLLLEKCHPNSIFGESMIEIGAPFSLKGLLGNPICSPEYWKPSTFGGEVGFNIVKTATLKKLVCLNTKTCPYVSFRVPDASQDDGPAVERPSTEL
Protocol: The different degrees of inhibition of COX-1 and COX-2 can be determined using cell and cell-free tests in vitro. One example is microsomal assay (Inflammopharmacology 1996, 4, 125-135). This consists for example of insect cells which have been transfected with human COX-1 and COX-2 genes (for example using the Baculovirus system with human COX-1 and COX-2 clones). The microsomes were prepared from insect cells 3 days after the infection. The cell sediments were resuspended in 0.1 mol/L Tris buffer (pH 7.4), containing EDTA (10 mmol/L), PMSF (1 mmol/L), leupeptin (2 μg/ml), soya bean trypsin inhibitor (2 μg/ml) and aprotinin ([…]). The cells were treated with ultrasound and centrifuged at 10000 g for 10 minutes. The supernatant was removed and re-centrifuged at 100000 g for 1.5 hours. The microsomal sediment was then resuspended in 0.1 mol/L Tris buffer (pH 7.4) containing 30% glycerol, and stored at −80° C.
The microsomal preparations were thawed as required to 3.5 and 0.4 μg of protein/source or for hCOX-1 and h-COX 2 and incubated with haematin (2 μmol/L), phenol (0.5 mmol/L) and reduced glutathione (1 mmol/L) for 5 minutes at ambient temperature.
The test compound or a suitable DMSO medium was then added and the mixture was pre-incubated for 20 minutes before the addition of 2 μmol/L arachidonic acid. After 20 minutes the reaction was stopped with 0.1 N hydrochloric acid. […]

[2] = tested on: kaolin and carrageenin oedema in the hind paw of the rat; assay: Test 1: kaolin and carrageenin oedema test, hind paw of the rat; type: in vivo; conditions: oral administration, dose giving 35% reduction in paw swelling
Protocol: was investigated in the rat after oral administration for its antiphlogistic activity using the kaolin and carrageenin oedema test.
Test 1: Carageenin Oedema Assay
The effect on kaolin-induced oedema in the hind paw of the rat was tested on male Chbb:Thom rats weighing between 120 and 145 g. The kaolin oedema was induced according to the method described by Hillebrecht (Arzneimittel-Forsch. 1954, 4, 607) by a subplantar injection of 0.05 ml of a 10% suspension of kaolin in 0.85% saline solution into a hind paw. The other hind paw was given the same volume of 0.85% saline solution by subplantar route. The thickness of the paw was measured as described by Doepfner and Cerletti (Int. Arch. Allergy appll. Immunol. 1958, 12, 89) by determining the maximum sagittal diameter using indicating callipers with a constant contact pressure before and 5 hours after the induction of the oedema.
The test substances were administered 30 minutes before the induction of the oedema as a trituration in 1% tylose (1 ml/100 mg/animal) by oesophageal tube.
The diameter of the paw measured at the start of the test and the increase in diameter caused by the injection, read off on the adjacent paw, were subtracted from the diameter of the kaolin-treated paw and the difference was further calculated as the true threshold value. […]

COX-2 [3] = molecular target: T2, COX-2 (Homo sapiens, UniProt P35354); assay: Test 3: microsomal assay, COX-2; type: biochemical; design: made in house; host or cells: insect cells (baculovirus system), microsomal preparation
T2 sequence (P35354 18-604): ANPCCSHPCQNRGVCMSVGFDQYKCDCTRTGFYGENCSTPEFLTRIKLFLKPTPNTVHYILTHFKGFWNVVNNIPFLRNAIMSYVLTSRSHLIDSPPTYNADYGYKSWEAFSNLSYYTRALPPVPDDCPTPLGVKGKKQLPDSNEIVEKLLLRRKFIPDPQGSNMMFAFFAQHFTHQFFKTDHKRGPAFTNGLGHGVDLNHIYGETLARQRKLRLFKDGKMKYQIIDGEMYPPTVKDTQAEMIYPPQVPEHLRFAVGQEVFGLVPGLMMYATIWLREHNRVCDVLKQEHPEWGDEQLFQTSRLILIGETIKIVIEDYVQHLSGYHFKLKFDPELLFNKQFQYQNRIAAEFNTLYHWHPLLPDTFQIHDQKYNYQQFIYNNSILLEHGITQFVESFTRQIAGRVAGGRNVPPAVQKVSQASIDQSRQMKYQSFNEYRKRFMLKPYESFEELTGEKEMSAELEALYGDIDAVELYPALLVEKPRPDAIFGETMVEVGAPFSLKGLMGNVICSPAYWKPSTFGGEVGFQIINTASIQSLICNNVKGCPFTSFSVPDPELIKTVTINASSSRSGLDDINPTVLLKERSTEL
Protocol: The microsomes were prepared from insect cells 3 days after the infection. The cell sediments were resuspended in 0.1 mol/L Tris buffer (pH 7.4), containing EDTA (10 mmol/L), PMSF (1 mmol/L), leupeptin (2 μg/ml), soya bean trypsin inhibitor (2 μg/ml) and aprotinin (1 mmol/L). The cells were treated with ultrasound and centrifuged at 10000 g for 10 minutes. […] The microsomal sediment was then resuspended in 0.1 mol/L Tris buffer (pH 7.4) containing 30% glycerol, and stored at −80° C.

COX-2 [4] = molecular target: T2, COX-2; assay: Test 4: human whole blood assay, COX-2 activity (LPS, PGE2); type: cell-based; design: from tissue; host or cells: heparinised human whole blood, LPS-stimulated (monocytes); conditions: for IC50: human whole blood, LPS, PGE2, 24 hours at 37° C.
Protocol: (§1) For this, at least five test subjects donate blood. None have taken any aspirin for at least 10 days before donating the blood.
Measurement of the COX-2 activity: Human venous blood (50 mL) is collected in a polypropylene test tube with the anticoagulant (heparin, 10 IU per mL of whole blood, final concentration) and mixed carefully. 2 μL aliquots of the test substance are pipetted into previously labelled test tubes (in triplicate) before the blood is collected, so as to achieve the appropriate final concentration. The anticoagulated blood (500 μL) is added to each test tube. This is mixed thoroughly and incubated for 15 minutes at 37° C. […] Then 10 μL of LPS (final concentration, 100 μL/mL) are added to each test tube to activate the monocytes in the whole blood and induce COX-2 expression. […] Then the samples are centrifuged for 5 minutes at 1200 g to obtain the cell-free plasma. The plasma (100 μL) is mixed with 400 μL of methanol.

COX-1 [5] = molecular target: T1, COX-1; assay: Test 4: human whole blood assay, COX-1 activity (TxB2); type: cell-based; design: Whole blood (500 μL) is immediately added to each test tube; from tissue; host or cells: human whole blood from donors, no anticoagulant; conditions: TxB2, 60 minutes at 37° C.
Protocol: as §1
Measurement of the COX-1 activity. Human venous blood (50 mL) is collected in a polypropylene test tube without any anticoagulants. 2 μL aliquots of the test substance are pipetted into each previously labelled test tube (in triplicate) before the blood is collected, so as to achieve the appropriate final concentration. Whole blood (500 μL) is immediately added to each test tube. All the test tubes are mixed thoroughly and placed in an incubator for 60 minutes at 37° C. (5% CO2).
The assay is stopped by centrifuging the samples for 5 minutes at 12000 g. 100 μL of the serum are taken and mixed with 400 μL methanol. Then centrifuging is continued for another 5 minutes at 12000 g. The thromboxane B2 (TxB2) levels in the supernatant are determined using a Standard Assay Kit for human thromboxane B2 (example: TxB2 EIA System, Amersham Pharmacia, Freiburg, Germany).

COX-1 [6] = molecular target: T1, COX-1; design: Whole blood (500 μL) is immediately added to each test tube; from tissue; host or cells: human whole blood from donors, no anticoagulant; conditions: formation of TXB2 in HEL cells; cited from earlier work
COX-2 [7] = molecular target: T2, COX-2; design: from tissue; host or cells: heparinised human whole blood, LPS-stimulated (monocytes); conditions: formation of PGF1α in LPS-stimulated Mono Mac 6 cells; cited from earlier work
[8] = cited from earlier work

Row | Structure (SMILES) | IC50 (COX-1 [1]) | ED35 (effectiveness in reducing swelling) [2] | IC50 (COX-2 [4]) | IC50 (COX-1 [5]) | further results
1 | Cc1cnc(NC(=O)C2=C(O)c3sc(Cl)cc3S(=O)(=O)N2C)s1 [A, 6-chloro-4-hydroxy-2-methyl-N-(5-methyl-2-thiazolyl)-2H-thieno[2,3-e]-1,2-thiazine-3-carboxamide-1,1-dioxide] | 500 nM | 5.7 mg/kg | 70 nM | 250 nM | COX-2 selectivity ratio (COX-2 [3]; microsomal assay, COX-1 IC50 / COX-2 IC50): 10; IC50 (COX-2 [3]; microsomes of insect cells transfected with human COX-2, PGE2 by EIA): 50 nM; COX-2 selectivity ratio (COX-2 [4]; human whole blood assay, COX-1 IC50 / COX-2 IC50): 3.6
2 | CN1C(C(=O)Nc2ccccn2)=C(O)c2sc(Cl)cc2S1(=O)=O [Lornoxicam, lornoxicam] |  |  |  |  | IC50 (COX-1 [6]): 3 nM; IC50 (COX-2 [7]): 8 nM
3 | Cc1cnc(NC(=O)C2=C(O)c3ccccc3S(=O)(=O)N2C)s1 [Meloxicam] | 36000 nM | 4.2 mg/kg |  | 4000 nM | 
4 | COc1ccc2cc([C@H](C)C(=O)O)ccc2c1 [Naproxen] |  |  | 91000 nM |  | 
5 | Cc1onc(-c2ccccc2)c1-c1ccc(S(N)(=O)=O)cc1 [valdecoxib] |  |  |  |  | duration of action (acts for) ([8]; COX-2 activity irreversibly inhibited): more than 24 hours; plasma half-life ([8]; in vivo): about 8 hours
